Two molecules from US12486229B2, “Indole derivative and application thereof” (SHANGHAI MEDICILON INC., priority 2020, dated 2025) can be followed below.

The experiment has as its system TNBS induced ulcerative colitis in rats. Put plainly: TNBS induced ulcerative colitis in rats. The experiment is classed as in vivo, rat. Conditions: for Colon length / Colon weight / Colon weight/colon length / Ulcer area: 3 mg/kg oral gavage once a day for 7 days, day 8; for General anatomical view of colon, from excellent to poor: 7 days administration, SASP 360, Example 3 and Etrasimod 3, Ozanimod 10 mg/kg; for Weight: 3 mg/kg oral gavage once a day; for Drug efficacy intensity (colon weight): oral gavage for 7 consecutive days, doses as given in ranking. On the procedure:
Preparation of molding agent: 5 mL TNBS and 8.953 mL anhydrous ethanol and 26.741 sterilized water for injection. • TNBS comes from Dalian Meilun Biotechnology Co., Ltd. • Source of SPF male SD rats: Shanghai Slake Experimental Animal Co., Ltd. • Animal age at the beginning of the experiment: 8 to 10 weeks; • Animal weight at the beginning of the experiment: about 250 g; • Adaptation time: 5 to 7 days; • Animals were fasted (only water) for 24 hours. After inhalation anesthesia with isoflurane, all rats were perfused with 0.5 mL TNBS ethanol solution per rat (18 mg TNBS/rat) via rectum with latex hose, with the length of the hose entering the rectum of about 8 cm. After withdrawing the hose, the rats remained under isoflurane anesthesia, and kept in the inclined state of hip elevation for 15 minutes.
The rats after modeling were randomly divided into 5 groups: model group, positive control group using drug sulfasalazine (SASP, 360 mg/kg), test substance group using the compound of Example 3 (3 mg/kg), test substance group using Etrasimod (3 mg/kg), test substance group using Ozanimod (10 mg/kg).
At 3 hours after modeling, the animals in each group were administrated with medicine solution by oral gavage (Table 1), 5 mL/kg body weight (10 mL/kg in sulfasalazine group), once a day, for 7 consecutive days, and the feces of the animals and whether there is death were observed every day. On the 8th day, the animals were killed under CO2 overdose anesthesia followed by being dissected, the entire colon tissue was extracted, the contents of the colon were cleaned after longitudinal dissection along the mesenteric side, the colon was weighed and measured for its length, the area of the ulcer was measured, and the general situation was observed and photos were taken. Finally, the colon was fixed in 10% formalin, and H&E staining and histopathological analysis (inflammation, goblet cells, lesion depth, ulcer degree, crypt abscess) were performed.
Wherein, the compound of Example 3 of the invention, purity: 99.74%. • Etrasimod, prepared according to the literature method (the second isomer of Example 1.29 in WO2010/011316A1), purity: 98.47%. • Ozanimod, prepared according to the literature method (compound 86 in WO2011/060392A1), purity: 99.78%. • Sulfasalazine enteric-coated tablets, produced by Shanghai Fuda Pharmaceutical Co., Ltd., 0.25 g/tablet. Enteric coated tablets show yellow to brownish yellow after the coating is removed. • Solutol: Beijing Fengli Jingqiu Pharmaceutical Co., Ltd. • Solvent preparation: • DMSO, Solutol and 0.9% sodium chloride solution were mixed according to the volume ratio of 5:10:85 to prepare the solvent.
Preparation of compound of Example 3 and Etrasimod solution: 27 mg of test substances were taken respectively and dissolved in 45 mL of solvent to obtain corresponding test substance solution.
Ozanimod: 90 mg Ozanimod was dissolved in 45 mL solvent to obtain Ozanimod solution.
Preparation of SASP solution: six sulfasalazine enteric-coated tablets after grinding were added to 41.7 mL 0.5% CMC-Na, and then dissolved by ultrasonic to obtain SASP solution.
Due to the excipient factor of SASP drug preparation, the concentration should not be too high when suspended in 0.5% CMC-Na, otherwise the suspension was uneven and the mobility was poor, so the dose volume of SASP was doubled compared with the compound of Example 3 and Etrasimod.

With `O=C(O)CCn1ccc2cc(OCc3ccc(C4CCCC4)c(C(F)(F)F)c3)cc(Cl)c21` [Compound of Example 3, 3-(7-chlorine-5-((4-cyclopentyl-3-(trifluoromethyl)benzyl)oxy)-1H-indole-1-yl)propionic acid], the Colon length is on record as 13.66 ± 0.63 cm, the Colon weight stood at 2.07 ± 0.17 g, the Colon weight/colon length was 0.15 g/cm and the Ulcer area stood at 53.87 ± 24.01 mm^2. Besides, the “General anatomical view of colon, from excellent to poor” value is listed as “group using compound of Example 3>group using sulfasalazine>group using Etrasimod>group using Ozanimod” and the “Drug efficacy intensity (colon weight)” value is listed as “group using the compound of Example 3 (3 mg/kg)>group using Etrasimod (3 mg/kg)>group using sulfasalazine (360 mg/kg)>model group>group using Ozanimod (10 mg/kg)”. Under “Day 1”, this molecule had a Weight of 247 ± 0.55 g. The Weight (Day 2) is given as 224.6 ± 0.51 g. Moreover, the Weight (Day 3) worked out at 226.3 ± 0.85 g. Besides, where the note is “Day 4”, the Weight is 233.6 ± 1.45 g. For the same molecule, for the setting “Day 5”, the Weight worked out at 238.5 ± 1.57 g. The molecule also returned a Weight (Day 6) of 245 ± 1.74 g. Under “Day 7”, this molecule came in with a Weight of 258.8 ± 1.61 g. Under “Day 8”, this molecule returned a Weight of 267.9 ± 1.44 g. Where the note is “SASP 360 mg/kg, Example 3 and Etrasimod 3 mg/kg, oral once a day”, the “Weight course compared with model group” value was “a certain tendency to inhibit the weight loss”.
The molecule `O=C(O)C[C@H]1CCc2c1[nH]c1ccc(OCc3ccc(C4CCCC4)c(C(F)(F)F)c3)cc21` [Etrasimod, reference compound] returned a Colon length of 13.56 ± 0.54 cm, a Colon weight of 2.54 ± 0.25 g, a Colon weight/colon length of 0.19 g/cm and a Ulcer area of 177.97 ± 56.5 mm^2. The “General anatomical view of colon, from excellent to poor” value was “group using compound of Example 3>group using sulfasalazine>group using Etrasimod>group using Ozanimod” and the “Drug efficacy intensity (colon weight)” value is on record as “group using the compound of Example 3 (3 mg/kg)>group using Etrasimod (3 mg/kg)>group using sulfasalazine (360 mg/kg)>model group>group using Ozanimod (10 mg/kg)”. Further, the Weight (Day 1) was 251.6 ± 0.5 g. The molecule also came in with a Weight (Day 2) of 225.5 ± 0.56 g. For the setting “Day 3”, this molecule yielded a Weight of 223.9 ± 0.94 g. For the same molecule, the Weight (Day 4) is 221.8 ± 1.51 g. Also, under “Day 5”, the Weight is listed as 224.4 ± 1.73 g. The same molecule had a Weight (Day 6) of 230.1 ± 2.04 g. For the setting “Day 7”, this molecule gave a Weight of 245.5 ± 1.85 g. Besides, the Weight (Day 8) came to 255.8 ± 1.6 g.
